# Patent US6479435B1, “Diaryl ethers and processes for their preparation and herbicidal and desiccant compositions containing them” (ISK Americas Incorporated, priority 1997, dated 2002)
# Legend:
# Type in all cases: in vivo
# [1] = test system: common ragweed (Ambrosia artemisiifolia L., AMBEL); assay: Post-emerge greenhouse herbicide test, phytotoxicity rating; details: 14 days after application, scale 0-100
# Outline: (§1)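 Plants at the 2-3 leaf stage, sown 8-21 days earlier, were track-sprayed post-emergence with compound in acetone plus 0.25% v/v non-ionic surfactant at 63-1000 g ai/ha (187 l/ha). Damage was rated at 14 days on a 0-100 scale (0 none, 100 all plants dead), for both crop injury and weed control.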
# [2] = test system: soybean (Glycine max L., var. Pella 86, SOY); assay: Pre-emerge greenhouse test, crop damage rating; set-up: key to SOY crop damage rating: 0 = no damage, 100 = complete death of all plants; details: 14 days after application, rating scale 0-100
# Outline: (§2)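 Seeds sown in sandy loam one day before track-sprayer application of acetone solutions at 125–1000 g ai/ha (187 l/ha), then surface-watered to incorporate and bottom-watered. Injury scored visually at 14 days on a 0–100 scale (0 no damage, 100 complete death).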
# [3] = test system: sicklepod (Cassia obtusifolia, CASOB); assay: Post-emerge greenhouse herbicide test, phytotoxicity rating; details: 14 days after application, scale 0-100
# Outline: as §1
# [4] = test system: velvetleaf (Abutilon theophrasti, ABUTH); assay: as above; details: 14 days after application, scale 0-100
# Outline: as §1
# [5] = test system: green foxtail (Setaria viridis, SETVI); assay: as above; details: 14 days after application, scale 0-100
# Outline: as §1
# [6] = test system: redroot pigweed (Amaranthus retroflexus, AMARE); assay: as above; details: 14 days after application, scale 0-100
# Outline: as §1
# [7] = test system: lambsquarters (Chenopodium album, CHEAL); assay: as above; details: 14 days after application, scale 0-100
# Outline: as §1
# [8] = test system: Johnsongrass (Sorghum halepense, SORHA); assay: as above; details: 14 days after application, scale 0-100
# Outline: as §1
# [9] = test system: ivyleaf morningglory (Ipomoea hederacea, IPOHE); assay: as above; details: 14 days after application, scale 0-100
# Outline: as §1
# [10] = test system: large crabgrass (Digitaria sanguinalis, DIGSA); assay: as above; details: 14 days after application, scale 0-100
# Outline: as §1
# [11] = test system: barnyardgrass (Echinochloa crusgalli, ECHCG); assay: as above; details: 14 days after application, scale 0-100
# Outline: as §1
# [12] = test system: soybean (Glycine max L., var. Pella 86, SOY); assay: Post-emerge greenhouse test, crop damage rating; set-up: key to crop damage rating SOY: 0-100 scale: 0 = no damage, 100 = complete death of all plants; details: 14 days after application, scale 0-100
# Outline: as §1
# [13] = test system: field corn (Zea mays L., var. Dekalb 535, CORN); assay: Post-emerge greenhouse test, crop damage rating; details: 14 days after application, scale 0-100
# Outline: as §1
# [14] = test system: upland rice (Oryza sp., var.Tebonnet, RICE); assay: Post-emerge greenhouse test, crop damage rating; details: 14 days after application, scale 0-100
# Outline: as §1
# [15] = test system: field corn (Zea mays L., var. Dekalb 535, CORN); assay: Pre-emerge greenhouse test, crop damage rating; details: 14 days after application, rating scale 0-100
# Outline: as §2
# [16] = test system: upland rice (Oryza sp., var.Tebonnet, RICE); assay: Pre-emerge greenhouse test, crop damage rating; details: 14 days after application, rating scale 0-100
# Outline: as §2
# [17] = test system: sicklepod (Cassia obtusifolia, CASOB); assay: Pre-emerge greenhouse herbicide test, phytotoxicity rating; details: 14 days after application, rating scale 0-100
# Outline: as §2
# [18] = test system: velvetleaf (Abutilon theophrasti, ABUTH); assay: as above; details: 14 days after application, rating scale 0-100
# Outline: as §2
# [19] = test system: green foxtail (Setaria viridis, SETVI); assay: as above; details: 14 days after application, rating scale 0-100
# Outline: as §2
# [20] = test system: redroot pigweed (Amaranthus retroflexus, AMARE); assay: as above; details: 14 days after application, rating scale 0-100
# Outline: as §2
# [21] = test system: common ragweed (Ambrosia artemisiifolia L., AMBEL); assay: as above; details: 14 days after application, rating scale 0-100
# Outline: as §2
# [22] = test system: lambsquarters (Chenopodium album, CHEAL); assay: as above; details: 14 days after application, rating scale 0-100
# Outline: as §2
# [23] = test system: Johnsongrass (Sorghum halepense, SORHA); assay: as above; details: 14 days after application, rating scale 0-100
# Outline: as §2
# [24] = test system: ivyleaf morningglory (Ipomoea hederacea, IPOHE); assay: as above; details: 14 days after application, rating scale 0-100
# Outline: as §2
# [25] = test system: large crabgrass (Digitaria sanguinalis, DIGSA); assay: as above; details: 14 days after application, rating scale 0-100
# Outline: as §2
# [26] = test system: barnyardgrass (Echinochloa crusgalli, ECHCG); assay: as above; details: 14 days after application, rating scale 0-100
# Outline: as §2
smiles,measurement,setting,value
O=c1n(-c2cc(Oc3nc(Cl)ccc3C(F)(F)F)c(Cl)cc2F)c(=S)n2n1CCCC2 [Compound 8-27],phytotoxicity rating AMBEL,[1]; rate 63 g ai/ha,60
same,phytotoxicity rating AMBEL,[1]; rate 500 g ai/ha,85
same,SOY crop damage rating,[2]; Rate 125 g al/ha,0
same,SOY crop damage rating,[2]; Rate 500 g al/ha,0
same,phytotoxicity rating CASOB,[3]; rate 63 g ai/ha,30
same,phytotoxicity rating CASOB,[3]; rate 500 g ai/ha,100
same,phytotoxicity rating ABUTH,[4]; rate 63 g ai/ha,80
same,phytotoxicity rating ABUTH,[4]; rate 500 g ai/ha,100
same,phytotoxicity rating SETVI,[5]; rate 63 g ai/ha,50
same,phytotoxicity rating SETVI,[5]; rate 500 g ai/ha,50
same,phytotoxicity rating AMARE,[6]; rate 63 g ai/ha,90
same,phytotoxicity rating AMARE,[6]; rate 500 g ai/ha,100
same,phytotoxicity rating CHEAL,[7]; rate 63 g ai/ha,90
same,phytotoxicity rating CHEAL,[7]; rate 500 g ai/ha,100
same,phytotoxicity rating SORHA,[8]; rate 63 g ai/ha,30
same,phytotoxicity rating SORHA,[8]; rate 500 g ai/ha,20
same,phytotoxicity rating IPOHE,[9]; rate 63 g ai/ha,50
same,phytotoxicity rating IPOHE,[9]; rate 500 g ai/ha,80
same,phytotoxicity rating DIGSA,[10]; rate 63 g ai/ha,10
same,phytotoxicity rating DIGSA,[10]; rate 500 g ai/ha,20
same,phytotoxicity rating ECHCG,[11]; rate 63 g ai/ha,0
same,phytotoxicity rating ECHCG,[11]; rate 500 g ai/ha,10
same,crop damage rating SOY,[12]; rate 63 g ai/ha,70
same,crop damage rating SOY,[12]; rate 500 g ai/ha,80
same,crop damage rating CORN,[13]; rate 63 g ai/ha,5
same,crop damage rating CORN,[13]; rate 500 g ai/ha,10
same,crop damage rating RICE,[14]; rate 63 g ai/ha,0
same,crop damage rating RICE,[14]; rate 500 g ai/ha,5
same,CORN crop damage rating,[15]; Rate 125 g al/ha,0
same,CORN crop damage rating,[15]; Rate 500 g al/ha,0
same,RICE crop damage rating,[16]; Rate 125 g al/ha,0
same,RICE crop damage rating,[16]; Rate 500 g al/ha,10
same,CASOB phytotoxicity rating,[17]; Rate 125 g al/ha,0
same,CASOB phytotoxicity rating,[17]; Rate 500 g al/ha,80
same,ABUTH phytotoxicity rating,[18]; Rate 125 g al/ha,50
same,ABUTH phytotoxicity rating,[18]; Rate 500 g al/ha,100
same,SETVI phytotoxicity rating,[19]; Rate 125 g al/ha,60
same,SETVI phytotoxicity rating,[19]; Rate 500 g al/ha,100
same,AMARE phytotoxicity rating,[20]; Rate 125 g al/ha,100
same,AMARE phytotoxicity rating,[20]; Rate 500 g al/ha,100
same,AMBEL phytotoxicity rating,[21]; Rate 125 g al/ha,0
same,AMBEL phytotoxicity rating,[21]; Rate 500 g al/ha,0
same,CHEAL phytotoxicity rating,[22]; Rate 125 g al/ha,80
same,CHEAL phytotoxicity rating,[22]; Rate 500 g al/ha,100
same,SORHA phytotoxicity rating,[23]; Rate 125 g al/ha,0
same,SORHA phytotoxicity rating,[23]; Rate 500 g al/ha,30
same,IPOHE phytotoxicity rating,[24]; Rate 125 g al/ha,0
same,IPOHE phytotoxicity rating,[24]; Rate 500 g al/ha,30
same,DIGSA phytotoxicity rating,[25]; Rate 125 g al/ha,10
same,DIGSA phytotoxicity rating,[25]; Rate 500 g al/ha,50
same,ECHCG phytotoxicity rating,[26]; Rate 125 g al/ha,0
same,ECHCG phytotoxicity rating,[26]; Rate 500 g al/ha,0
